Experiment [1] deals with T1, human factor XIa (Homo sapiens, UniProt P03951).
T1 construct: purchased Kordia
Put plainly: Measurement of FXIa inhibition (fluorogenic peptide substrate Boc-Glu(OBzl)-Ala-Arg-AMC). The class given is biochemical. Particulars: factor XIa from Kordia, 15 min preincubation, 30 min at 22° C., fluorescence; read-out: IC50. The protocol:
a.1) Measurement of FXIa Inhibition
The factor XIa inhibition of the substances according to the invention is determined using a biochemical test system which utilizes the reaction of a peptidic factor XIa substrate to determine the enzymatic activity of human factor XIa. Here, factor XIa cleaves from the peptic factor XIa substrate the C-terminal aminomethylcoumarin (AMC), the fluorescence of which is measured. The determinations are carried out in microtitre plates.
(§1) In each case 1 μl of the diluted substance solutions is placed into the wells of white microtitre plates from Greiner (384 wells). […] After 15 min of incubation, the enzyme reaction is started by addition of 20 μl of the factor XIa substrate Boc-Glu(OBzl)-Ala-Arg-AMC dissolved in assay buffer (10 μM in assay buffer) from Bachem, the mixture is incubated at room temperature (22° C.) for 30 min and fluorescence is then measured (excitation: 360 nm, emission: 460 nm). The measured emissions of the test batches with test substance are compared to those of control batches without test substance (only dimethyl sulphoxide instead of test substance in dimethyl sulphoxide), and IC50 values are calculated from the concentration/activity relationships.

In experiment [2] the test system is plasma. Put plainly: Determination of anticoagulatory activity: activated partial thromboplastin time (aPTT) in plasma. The class given is biochemical, human. The settings on record: concentration of test substance which brings about a 1.5-fold extension of the aPTT, C.K. Prest kit, 37° C. As to the method:
a.4) Determination of Anticoagulatory Activity
The anticoagulatory activity of the test substances is determined in vitro in human and animal plasma (for example mouse, rat, rabbit, pig and dog plasma). To this end, blood is drawn off in a mixing ratio of sodium citrate/blood of 1:9 using a 0.11 molar sodium citrate solution as receiver. Immediately after the blood has been drawn off, it is mixed thoroughly and centrifuged at about 4000 g for 15 minutes. The supernatant is pipetted off.
The activated partial thromboplastin time (aPTT) is determined in the presence of varying concentrations of test substance or the corresponding solvent using a commercial test kit (C.K. Prest from Diagnostica Stago). The test compounds are incubated with the plasma and the PTT reagent (cephalin, kaolin) at 37° C. for 3 minutes. Coagulation is then started by addition of a 25 mM aqueous calcium chloride solution, and the time when coagulation occurs is determined. The concentration of test substance which brings about a 1.5-fold extension of the aPTT is determined.

The target in experiment [3] is T2, human plasmin (Homo sapiens, UniProt P00747).
T2 construct: purchased Kordia
Put plainly: Measurement of plasmin inhibition (fluorogenic peptide substrate MeOSuc-Ala-Phe-Lys-AMC). The class given is biochemical. The settings on record: plasmin from Kordia, 15 min preincubation, 30 min at 22° C., fluorescence. As to the method:
a.6) Measurement of Plasmin Inhibition
The plasmin inhibition of the inventive substances is determined using a biochemical test system which utilizes the reaction of a peptidic plasmin substrate to determine the enzymatic activity of human plasmin. Here, plasmin cleaves from the peptic plasmin substrate the C-terminal aminomethylcoumarin (AMC), the fluorescence of which is measured. The determinations are carried out in microtitre plates.
as §1, with “Test substances are dissolved in dimethyl sulphoxide and serially diluted in dimethyl sulphoxide (3000 μM to 0.0078 μM; resulting final concentrations in the test: 50 μM to 0.00013 μM). In” for “In”, “plasmin” for “factor XIa”, “MeOSuc-Ala-Phe-Lys-AMC” for “Boc-Glu(OBzl)-Ala-Arg-AMC”, “(150” for “(10”

Where a name gives a salt, the structure may show the parent alone.

T1 sequence (P03951 388-625 limits assumed): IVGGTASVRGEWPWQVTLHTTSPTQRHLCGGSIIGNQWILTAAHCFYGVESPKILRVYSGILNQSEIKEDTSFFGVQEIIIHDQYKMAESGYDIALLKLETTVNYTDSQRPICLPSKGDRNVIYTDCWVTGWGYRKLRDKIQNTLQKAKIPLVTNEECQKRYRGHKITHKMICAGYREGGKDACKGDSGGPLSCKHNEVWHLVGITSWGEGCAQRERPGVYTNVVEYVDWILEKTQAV
T1 sequence (P03951 19-387 partner limits assumed): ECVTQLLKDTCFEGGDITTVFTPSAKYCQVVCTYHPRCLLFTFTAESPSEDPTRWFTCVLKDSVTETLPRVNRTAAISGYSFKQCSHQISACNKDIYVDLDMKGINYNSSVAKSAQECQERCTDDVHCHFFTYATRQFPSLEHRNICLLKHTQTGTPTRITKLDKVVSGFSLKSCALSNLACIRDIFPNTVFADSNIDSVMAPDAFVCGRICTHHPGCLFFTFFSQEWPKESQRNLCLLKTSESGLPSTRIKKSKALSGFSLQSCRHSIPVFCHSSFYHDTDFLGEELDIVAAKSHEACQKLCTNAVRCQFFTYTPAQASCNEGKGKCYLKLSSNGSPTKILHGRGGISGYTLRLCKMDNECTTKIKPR
T2 sequence (P00747 581-810 limits assumed): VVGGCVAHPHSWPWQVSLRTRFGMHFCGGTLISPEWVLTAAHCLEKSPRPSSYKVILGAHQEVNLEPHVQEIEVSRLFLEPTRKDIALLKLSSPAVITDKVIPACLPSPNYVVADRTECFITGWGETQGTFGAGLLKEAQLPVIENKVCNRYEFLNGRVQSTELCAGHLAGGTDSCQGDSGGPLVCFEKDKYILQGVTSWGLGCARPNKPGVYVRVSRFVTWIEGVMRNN
T2 sequence (P00747 97-580 partner limits assumed): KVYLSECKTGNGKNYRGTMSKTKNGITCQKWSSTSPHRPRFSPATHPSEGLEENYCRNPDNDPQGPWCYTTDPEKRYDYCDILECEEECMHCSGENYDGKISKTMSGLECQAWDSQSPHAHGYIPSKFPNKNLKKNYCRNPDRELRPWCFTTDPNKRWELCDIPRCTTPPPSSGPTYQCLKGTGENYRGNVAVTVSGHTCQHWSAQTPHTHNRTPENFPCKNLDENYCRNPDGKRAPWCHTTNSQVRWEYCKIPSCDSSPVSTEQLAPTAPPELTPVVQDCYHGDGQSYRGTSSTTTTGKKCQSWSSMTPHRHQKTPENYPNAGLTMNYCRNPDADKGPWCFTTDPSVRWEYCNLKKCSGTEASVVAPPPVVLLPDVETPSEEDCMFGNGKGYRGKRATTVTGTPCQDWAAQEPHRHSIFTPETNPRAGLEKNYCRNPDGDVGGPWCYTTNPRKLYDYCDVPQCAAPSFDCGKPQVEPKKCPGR

As to `Cc1cc(C#N)ccc1-c1ccc(C[C@H](NC(=O)[C@H]2CC[C@H](CN)CC2)C(=O)Nc2ccc(-c3nn[nH]n3)cc2)cc1` [Example 23, trans-4-(Aminomethyl)-N-[(2S)-3-(4′-cyano-2′-methylbiphenyl-4-yl)-1-oxo-1-{[4-(2H-tetrazol-5-yl)phenyl]amino}propan-2-yl]cyclohexanecarboxamide hydrochloride], in experiment [1], the half-maximal inhibitory concentration (IC50) (usually the point on the concentration scale where inhibition reaches its midpoint) came out at 1.1 nM. In addition, the “Concentration for 1.5-fold aPTT extension” value in experiment [2] was found to be 0.27 µmol/L.

For `Cc1cc(S(=O)(=O)N(C)C)ccc1-c1ccc(C[C@H](NC(=O)[C@H]2CC[C@H](CN)CC2)C(=O)Nc2ccc(-c3nn[nH]n3)c(F)c2)cc1` [Example 24, trans-4-(Aminomethyl)-N-[(2S)-3-[4′-(dimethylsulphamoyl)-2′-methylbiphenyl-4-yl]-1-{[3-fluoro-4-(2H-tetrazol-5-yl)phenyl]amino}-1-oxopropan-2-yl]cyclohexanecarboxamide hydrochloride], the IC50 in experiment [1] turned out to be 0.4 nM. In experiment [2], the “Concentration for 1.5-fold aPTT extension” value was 0.27 µmol/L.

As to `Cc1cc(S(=O)(=O)NC2CC2)ccc1-c1ccc(C[C@H](NC(=O)[C@H]2CC[C@H](CN)CC2)C(=O)Nc2ccc3c(=O)[nH][nH]c3c2)cc1` [Example 12, trans-4-(Aminomethyl)-N-{(2S)-3-[4′-(cyclopropylsulphamoyl)-2′-methylbiphenyl-4-yl]-1-oxo-1-[(3-oxo-2,3-dihydro-1H-indazol-6-yl)amino]propan-2-yl}cyclohexanecarboxamide hydrochloride], the concentration for half-maximal inhibition (IC50) in experiment [1] was determined as 2.7 nM; in experiment [3] it was 30 nM. In addition, the “Concentration for 1.5-fold aPTT extension” value in experiment [2] was determined as 0.04 µmol/L.

With `Cc1cc(S(N)(=O)=O)ccc1-c1ccc(C[C@H](NC(=O)[C@H]2CC[C@H](CN)CC2)C(=O)Nc2ccc(-c3nnc(Cl)[nH]3)cc2)cc1` [Example 20, trans-4-(Aminomethyl)-N-[(2S)-1-{[4-(3-chloro-4H-1,2,4-triazol-5-yl)phenyl]amino}-3-(2′-methyl-4′-sulphamoylbiphenyl-4-yl)-1-oxopropan-2-yl]cyclohexanecarboxamide hydrochloride], the 50% inhibitory concentration (IC50) in experiment [1] was 1.8 nM. Moreover, in experiment [2], the “Concentration for 1.5-fold aPTT extension” value amounted to 0.18 µmol/L.

For the compound `CCN(CC)S(=O)(=O)c1ccc(-c2ccc(C[C@H](NC(=O)[C@H]3CC[C@H](CN)CC3)C(=O)Nc3ccc4c(=O)[nH][nH]c4c3)cc2)c(C)c1` [Example 17, trans-4-(Aminomethyl)-N-{(2S)-3-[4′-(diethylsulphamoyl)-2′-methylbiphenyl-4-yl]-1-oxo-1-[(3-oxo-2,3-dihydro-1H-indazol-6-yl)amino]propan-2-yl}cyclohexanecarboxamide hydrochloride], the IC50 in experiment [1] amounted to 3.5 nM. The “Concentration for 1.5-fold aPTT extension” value in experiment [2] was determined as 0.13 µmol/L.

As to `Cc1cc(S(=O)(=O)N2CCCC2)ccc1-c1ccc(C[C@H](NC(=O)[C@H]2CC[C@H](CN)CC2)C(=O)Nc2ccc3c(=O)[nH][nH]c3c2)cc1` [Example 15, trans-4-(Aminomethyl)-N-{(2S)-3-[2′-methyl-4′-(pyrrolidin-1-ylsulphonyl)biphenyl-4-yl]-1-oxo-1-[(3-oxo-2,3-dihydro-1H-indazol-6-yl)amino]propan-2-yl}cyclohexanecarboxamide hydrochloride], the figures for the 50% inhibitory concentration (IC50) in experiment [1] and in experiment [3] were 2.8 nM and 23 nM, respectively. Besides, the “Concentration for 1.5-fold aPTT extension” value in experiment [2] came to 0.09 µmol/L.

Turning to `NC[C@H]1CC[C@H](C(=O)N[C@@H](Cc2ccc(-c3ccc(S(N)(=O)=O)cc3)cc2)C(=O)Nc2ccc(-c3nnc(Cl)[nH]3)cc2)CC1` [Example 22, trans-4-(Aminomethyl)-N-[(2S)-1-{[4-(3-chloro-4H-1,2,4-triazol-5-yl)phenyl]amino}-1-oxo-3-(4′-sulphamoylbiphenyl-4-yl)propan-2-yl]cyclohexanecarboxamide hydrochloride], in experiment [1], the IC50 was found to be 1.5 nM. The “Concentration for 1.5-fold aPTT extension” value in experiment [2] stood at 0.25 µmol/L.

In the case of `Cc1cc(S(=O)(=O)NC2CCNCC2)ccc1-c1ccc(C[C@H](NC(=O)[C@H]2CC[C@H](CN)CC2)C(=O)Nc2ccc(-c3nnn[nH]3)cc2)cc1` [Example 1, trans-4-(Aminomethyl)-N-[(2S)-3-[2′-methyl-4′-(piperidin-4-ylsulphamoyl)biphenyl-4-yl]-1-oxo-1-{[4-(1H-tetrazol-5-yl)phenyl]amino}propan-2-yl]cyclohexanecarboxamide hydrochloride], the IC50 in experiment [1] is 1.1 nM. Moreover, the “Concentration for 1.5-fold aPTT extension” value in experiment [2] was found to be 0.1 µmol/L.

`COc1ccc(-c2ccc(C[C@H](NC(=O)[C@H]3CC[C@H](CN)CC3)C(=O)Nc3ccc(-c4nn[nH]n4)cc3)cc2)c(C(F)(F)F)c1` [Example 27, trans-4-(Aminomethyl)-N-[(2S)-3-[4′-methoxy-2′-(trifluoromethyl)biphenyl-4-yl]-1-oxo-1-{[4-(2H-tetrazol-5-yl)phenyl]amino}propan-2-yl]cyclohexanecarboxamide hydrochloride]: in experiment [1], the 50% inhibitory concentration (IC50) was 4.5 nM. In addition, the “Concentration for 1.5-fold aPTT extension” value in experiment [2] is 0.21 µmol/L.

For the compound `CC(=O)Nc1ccc(-c2ccc(C[C@H](NC(=O)[C@H]3CC[C@H](CN)CC3)C(=O)Nc3ccc(-c4nn[nH]n4)cc3)cc2)cc1F` [Example 26, trans-N-[(2S)-3-(4′-Acetamido-3′-fluorobiphenyl-4-yl)-1-oxo-1-{[4-(2H-tetrazol-5-yl)phenyl]-amino}propan-2-yl]-4-(aminomethyl)cyclohexanecarboxamide hydrochloride], the concentration for half-maximal inhibition (IC50) in experiment [1] came to 4.7 nM. Further, the “Concentration for 1.5-fold aPTT extension” value in experiment [2] stood at 0.4 µmol/L.

For the compound `Cc1cc(S(=O)(=O)N[C@@H]2CCNC2)ccc1-c1ccc(C[C@H](NC(=O)[C@H]2CC[C@H](CN)CC2)C(=O)Nc2ccc(-c3nn[nH]n3)cc2)cc1` [Example 16, trans-4-(Aminomethyl)-N-[(2S)-3-{2′-methyl-4′-[(3R)-pyrrolidin-3-ylsulphamoyl]biphenyl-4-yl}-1-oxo-1-{[4-(2H-tetrazol-5-yl)phenyl]amino}propan-2-yl]cyclohexanecarboxamide hydrochloride], in experiment [1], the IC50 stood at 1.3 nM. Also, the “Concentration for 1.5-fold aPTT extension” value in experiment [2] amounted to 0.11 µmol/L.

These data come from US20160237044A1, “SUBSTITUTED PHENYLALANINE DERIVATIVES” (BAYER PHARMA AKTIENGESELLSCHAFT, priority 2013, published 2016).
